One assay deals with T1, S. cerevisiae H^+-ATPase (Saccharomyces cerevisiae, UniProt P05030).
T1 construct: transformed with the full-length cDNA of the S. cerevisiae plasma membrane H^+-ATPase isoform PMA1; made in house; host or cells: S. cerevisiae RS72
The assay is described as follows: Colorimetric ATPase assay (ATP hydrolysis), S. cerevisiae plasma membranes. In kind it is biochemical. Conditions: initial hit compounds, Table 1. An excerpt:
To investigate the H^+-ATPase inhibitory effect of the compounds we isolated plasma membranes containing H^+-ATPase from S. cerevisiae and C. albicans cells.[15] Plasma membranes isolated from pig kidney as well as endoplasmic reticulum membranes from rabbit hind leg muscle were used to counter-screen compounds for activity against mammalian Na^+,K^+-ATPase and Ca^2+-ATPase, respectively. Prior to their use, fungal plasma membrane batches were validated by determining the maximum ATP hydrolysis activity, the pH optimum of the ATPase activity, and the sensitivity to inhibition by orthovanadate. ATPase activity was determined by a colorimetric assay that measures the amount of inorganic phosphate liberated over time, as described in Kjellerup et al., 2017.[15] Table 2, Table 3, Table 4 list the IC50 values obtained by measuring the concentration dependence of the ATPase activity for the fifteen carbazole compounds with each of the four membrane preparations.
Pma1-containing plasma membranes were prepared from S. cerevisiae RS72 yeast cells that had been transformed with the full-length cDNA of the S. cerevisiae plasma membrane H^+-ATPase isoform PMA1 under control of the PMA1 promoter, using the same procedure as described in Kongstad et al., 2014^1. For the preparation of C. albicans membranes, a 100 ml overnight culture grown in YPD (10 g/L yeast extract (BD, Sparks, MD), 20 g/L Bacto peptone (BD), 20 g/L D-(+)-glucose) was transferred to 1 L YPD and grown for a further 7 h at RT with agitation (150 rpm), followed by cell harvesting and subsequent membrane preparation using the same procedure as described in Kongstad et al., 2014^1. […] Rabbit sarcoplasmic reticulum membranes containing Sarco/Endoplasmic Reticulum Ca^2+ ATPase (SERCA) were kindly provided by Dr. Claus E. Olesen and Dr. Jesper V. Møller, Aarhus University and prepared as described in Andersen et al., 1985^2. Pig kidney Na^+,K^+-ATPase was kindly provided by Dr. Natalya Fedosova, Aarhus University and prepared as described in Klodos et al., 2002^3.
The compound libraries were purchased from Enamine Ltd, Ukraine and Chembridge Corp, USA. ATPase activity was determined by measuring the amount of liberated phosphate from ATP hydrolysis. […] Reactions were initiated by the addition of Na-ATP to a final concentration of 2.5 mM (Pma1 and Na^+,K^+-ATPase) or 5 mM (SERCA), followed by 30 minutes incubation at 30 °C. The amount of liberated phosphate was determined colorimetrically after addition of STOP solution (mixture of L-ascorbic acid, ammonium heptamolybdate tetrahydrate, and HCl to give final concentrations of 65 mM, 2.2 mM, and 189 mM, respectively) with 5 minutes incubation at room temperature (RT) followed by addition of arsenite solution (mixture of NaAsO2, sodium citrate dihydrate, and acetic acid to give final concentrations of 3.1 mM, 28 mM, and 141 mM, respectively). Absorption was measured at 860 nm after an additional 30 minutes incubation at RT.

The test system of assay [1] is S. cerevisiae. Nature of the assay: Fungal growth inhibition, library hits. The class given is cell-based. Conditions: Saccharomyces cerevisiae, baker yeast. The procedure:
(§1) Compound hits from the library screening were evaluated against baker yeast S. cerevisiae and C. albicans (ATCC 90028). The minimum inhibitory concentration (MIC) was defined as the lowest concentration inhibiting visual growth of the microorganism and this was determined in triplicate. Standard errors were typically less than 5%. MICs for synthesized compounds were determined on the following fungal isolates: Saccharomyces cerevisiae (ATCC 9763), Candida albicans (SC5314), Candida krusei (ATCC 6258), Candida glabrata (ATCC 90030), Aspergillus flavus (ATCC MYA-1005) and Aspergillus fumigatus (ATCC 13073), which were purchased from American Type Culture Collection, and C. glabrata strain Cg003, which was kindly provided by Julius Subik, Comenius University in Bratislava, Slovak Republic. Cg003 is a clinical isolate, characterized to be resistant to fluconazole and itraconazole due to overexpression of the multidrug resistance efflux pumps Cdr1p and Cdr2p^5. The fungal growth assay was performed as described in Kjellerup et al., 2017^6.

The test system of a further assay is C. albicans (ATCC 90028). Nature of the assay: Fungal growth inhibition, library hits. In kind it is cell-based. As for the experimental part: as §1
The subject of another assay is C. albicans. Nature of the assay: Extracellular acidification assay. In kind it is cell-based. Conditions: Candida albicans, mean ± SEM n = 3. An excerpt: (§2) It was subsequently evaluated whether or not the carbazoles were able to prevent extracellular acidification of the surrounding media by blocking the pumping activity of the H^+-ATPase within fungal cells.[15] […] The H^+-ATPase requires ATP to transport protons out of fungal cells. Consequently, a decrease in intracellular ATP (iATP) levels will indirectly affect H^+-ATPase activity. […] In all cases, iATP levels were […] in C. albicans cells exposed to carbazoles compared to the untreated control. […] This implies that the carbazoles need to pass the fungal membrane to inhibit the H^+-ATPase and 7, 18 and 19 may have reduced membrane permeability.
(§3) The ability of S. cerevisiae and C. albicans to acidify the media upon glucose addition was evaluated using the pH sensor dextran (40,000MW)-fluorescein-isothiocyanate as described in Kjellerup et al., 2017^6. Briefly, the cells was starved overnight in 50 mM KCl, pH 6.7 at 4 °C. The cell suspension (Final OD600 of 0.19) was mixed with 1.3 µg/ml dextran (40,000MW)-fluorescein-isothiocyanate, 1.5 % DMSO containing inhibitors and the assay initiated with the addition of 2 % D-(+)-glucose. The rate of media acidification was calculated based on the slope of the fluorescent drop in the first 12 minutes after glucose addition.

The subject of assay [2] is S. cerevisiae. Nature of the assay: Extracellular acidification assay. The class given is cell-based. The following applies: Saccharomyces cerevisiae, mean ± SEM n = 3.
Text: as §2, §3

In another assay the test system is C. albicans cells. The assay is described as follows: Intracellular ATP determination. The class given is cell-based. The following applies: compound at 20 µM, 30 minutes, mean ± SEM n = 5.
Text: as §2
C. albicans cells were transferred to 3 ml of YPD media and grown overnight at 30 °C and 150 rpm. The cells were pelleted at 2000 × g for 2 min. and washed in PBS (Sigma-Aldrich, catalog number 8537) twice before re-suspension to an OD600 of 0.1. Cell suspension (98 µL) and 2 µl compound in DMSO were incubated for 30 minutes at RT. Forty microliters of this suspension was then transferred to a black 96-well plate containing 40 µl BacTiterGlo reagent (Promega, Madison, WI) and the plate was incubated for 15 minutes in the dark at room temperature. Luminescence was read on a SpectraMax X5 (Molecular Devices, Sunnyvale, CA) plate reader with 10 s shake and 0.5 s integration time. A standard curve containing 10, 100 and 1000 nM ATP was prepared for every experiment.

Values after ≈ are worked out from the molar mass of the structure shown.

T1 sequence (P05030 whole entry, canonical isoform): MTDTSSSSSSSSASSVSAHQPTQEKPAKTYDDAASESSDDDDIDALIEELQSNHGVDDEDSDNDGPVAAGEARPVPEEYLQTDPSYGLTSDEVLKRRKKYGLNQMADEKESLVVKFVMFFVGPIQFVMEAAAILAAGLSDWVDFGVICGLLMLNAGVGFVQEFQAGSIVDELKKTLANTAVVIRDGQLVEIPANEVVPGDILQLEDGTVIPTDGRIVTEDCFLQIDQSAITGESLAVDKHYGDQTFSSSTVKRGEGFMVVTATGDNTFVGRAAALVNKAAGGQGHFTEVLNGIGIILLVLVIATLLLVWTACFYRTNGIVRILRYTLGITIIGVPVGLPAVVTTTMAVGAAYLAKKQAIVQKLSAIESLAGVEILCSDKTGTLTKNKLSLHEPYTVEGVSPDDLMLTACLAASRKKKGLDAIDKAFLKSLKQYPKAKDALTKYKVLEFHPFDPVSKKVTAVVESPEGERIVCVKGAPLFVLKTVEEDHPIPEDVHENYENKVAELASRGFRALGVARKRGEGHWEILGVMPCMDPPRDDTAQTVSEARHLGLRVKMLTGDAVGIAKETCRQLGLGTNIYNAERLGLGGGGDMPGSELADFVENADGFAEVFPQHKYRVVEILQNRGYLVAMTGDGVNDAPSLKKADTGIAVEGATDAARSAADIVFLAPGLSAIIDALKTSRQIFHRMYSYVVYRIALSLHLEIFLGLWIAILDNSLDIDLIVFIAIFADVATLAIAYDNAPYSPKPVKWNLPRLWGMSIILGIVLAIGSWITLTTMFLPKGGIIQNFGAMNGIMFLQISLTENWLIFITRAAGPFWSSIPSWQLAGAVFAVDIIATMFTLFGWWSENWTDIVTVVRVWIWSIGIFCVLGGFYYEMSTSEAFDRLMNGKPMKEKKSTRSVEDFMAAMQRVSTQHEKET

In the case of `OC(CN1CCCC1)Cn1c2ccc(Cl)cc2c2cc(Cl)ccc21` (stereo not shown) [Compound 4], on S. cerevisiae H^+-ATPase, the IC50 is 17.3 ± 5.5 µM. The MIC in the assay with S. cerevisiae [1] was 10 µM (≈ 3.63 µg/mL); in the assay with C. albicans (ATCC 90028) (ATCC 90028, library hits) it was 30 µM (≈ 10.9 µg/mL); with C. albicans (ATCC 90028) (Candida albicans, ATCC90028, ATCC 90028, library hits), at least 30 µM.
Turning to `C[C@@H](c1ncncc1F)[C@](O)(Cn1cncn1)c1ccc(F)cc1F` [Voriconazole, reference compound], the IC50 in the assay with C. albicans and in the assay on S. cerevisiae [2] was over 75 µM in each case. The iATP with C. albicans cells came out at 37 ± 19 nM.
In turn, `OC(CN1CCCCCC1)Cn1c2ccccc2c2ccccc21` (stereo not shown) [Compound 1] registered an IC50 at S. cerevisiae H^+-ATPase of 18.8 ± 7.3 µM. The MIC with S. cerevisiae [1] was over 200 µM; against C. albicans (ATCC 90028) (ATCC 90028, library hits) it was over 200 µM.
Regarding `Oc1ccccc1Cn1c2ccccc2c2ccccc21` [Compound 3], half-maximal inhibition at S. cerevisiae H^+-ATPase (IC50) was put at 9.7 ± 0.6 µM. Also, the MIC turned out to be 50 µM (≈ 13.7 µg/mL) in the assay with S. cerevisiae [1] and 100 µM (≈ 27.3 µg/mL) against C. albicans (ATCC 90028) (ATCC 90028, library hits).
On S. cerevisiae H^+-ATPase, `CC(C)CCOCC(O)Cn1c2ccccc2c2ccccc21` (stereo not shown) [Compound 2] returned an IC50 of 5.5 ± 0.7 µM. Moreover, the MIC against S. cerevisiae [1] was 50 µM (≈ 15.6 µg/mL); in the assay with C. albicans (ATCC 90028) (ATCC 90028, library hits), over 200 µM.

What is called IC50 is the midpoint of a concentration-inhibition curve. A lower IC50 goes with greater potency. As a reminder, the MIC is the lowest concentration found to suppress growth. Higher therefore signals a need for much substance.

The values are drawn from article PMC5609566, “Elucidation of antimicrobial activity and mechanism of action by N-substituted carbazole derivatives” (Bioorganic & Medicinal Chemistry Letters, 2017).
